In PubChem BioAssay (NCI):
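Interpolation was linear, between the two tested concentrations surrounding the appropriate level; five concentrations were tested over 48 hours in 96-well plates. Definition used: TGI = concentration required for complete inhibition of growth.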

Key:
Experiment in all cases: DTP human tumour cell line panel, 48 h
RPMI-8226 leukemia = tested on: RPMI-8226 leukemia
SK-OV-3 ovarian = tested on: SK-OV-3 ovarian
LOX IMVI melanoma = tested on: LOX IMVI melanoma
HS 578T breast = tested on: HS 578T breast
UO-31 renal = tested on: UO-31 renal
NCI-H23 lung = tested on: NCI-H23 lung
ACHN renal = tested on: ACHN renal
NCI-H226 lung = tested on: NCI-H226 lung
HL-60(TB) leukemia = tested on: HL-60(TB) leukemia
SK-MEL-28 melanoma = tested on: SK-MEL-28 melanoma
M14 melanoma = tested on: M14 melanoma
OVCAR-8 ovarian = tested on: OVCAR-8 ovarian
CAKI-1 renal = tested on: CAKI-1 renal
NCI/ADR-RES ovarian = tested on: NCI/ADR-RES ovarian
U251 CNS = tested on: U251 CNS
786-0 renal = tested on: 786-0 renal
CCRF-CEM leukemia = tested on: CCRF-CEM leukemia
OVCAR-3 ovarian = tested on: OVCAR-3 ovarian
KM12 colon = tested on: KM12 colon
PC-3 prostate = tested on: PC-3 prostate

| Structure (SMILES) | TGI (RPMI-8226 leukemia) [µM] | TGI (SK-OV-3 ovarian) [µM] | TGI (LOX IMVI melanoma) [µM] | TGI (HS 578T breast) [µM] | TGI (UO-31 renal) [µM] | TGI (NCI-H23 lung) [µM] | TGI (ACHN renal) [µM] | TGI (NCI-H226 lung) [µM] | TGI (HL-60(TB) leukemia) [µM] | TGI (SK-MEL-28 melanoma) [µM] | TGI (M14 melanoma) [µM] | TGI (OVCAR-8 ovarian) [µM] | TGI (CAKI-1 renal) [µM] | TGI (NCI/ADR-RES ovarian) [µM] | TGI (U251 CNS) [µM] | TGI (786-0 renal) [µM] | TGI (CCRF-CEM leukemia) [µM] | TGI (OVCAR-3 ovarian) [µM] | TGI (KM12 colon) [µM] | TGI (PC-3 prostate) [µM] |
| --- | --- | --- | --- | --- | --- | --- | --- | --- | --- | --- | --- | --- | --- | --- | --- | --- | --- | --- | --- | --- |
| COc1cc(/C=C2/SC(c3ccccc3)N(c3ccccc3Cl)C2=O)cc(OC)c1OC (centres undefined) | 52.3 | 63.4 | 41.7 | > 100 | > 100 | 81.7 | > 100 | > 100 | > 100 | > 100 | > 100 | > 100 | > 100 | 85.3 | 67.8 | > 100 | 43.4 | > 100 | > 100 | – |
| Cc1c(C)c(C)n(C2OC(CO)C(O)C(O)C2O)c(=S)c1C#N (centres undefined) | – | > 100 | > 100 | – | > 100 | > 100 | > 100 | > 100 | > 100 | > 100 | > 100 | > 100 | – | > 100 | > 100 | > 100 | > 100 | > 100 | > 100 | > 100 |
| CC1OC(OC2C(OC(=O)[C@]34CCC(C)(C)CC3C3=CCC5[C@@]6(C)C[C@H](O)[C@H](OC7OC(CO)C(O)C(O)C7N)[C@@](C)(C(=O)O)C6CC[C@@]5(C)C3(C)CC4)OCC(O)C2O)C(O)C(O)C1OC1OCC(O)C(O)C1O (some centres undefined) | > 100 | > 100 | > 100 | – | > 100 | > 100 | > 100 | > 100 | > 100 | > 100 | – | > 100 | > 100 | – | > 100 | > 100 | > 100 | > 100 | > 100 | – |
| OC1(c2ccccc2)C2CCN(CC2)C1CN1CCOCC1 (centres undefined) | > 100 | > 100 | > 100 | – | > 100 | > 100 | > 100 | > 100 | > 100 | > 100 | > 100 | > 100 | > 100 | > 100 | > 100 | > 100 | > 100 | > 100 | > 100 | > 100 |
| COC(=O)c1cc(C)ccc1C1CN=NC12Cc1ccc(C)cc1C2=O (centres undefined) | – | > 100 | > 100 | > 100 | > 100 | > 100 | > 100 | > 100 | 37.5 | > 100 | > 100 | > 100 | > 100 | > 100 | > 100 | > 100 | > 100 | > 100 | > 100 | > 100 |
| O=C(O)C1CCCN(CCc2c[nH]c3ccccc23)C1 (centres undefined) | > 100 | > 100 | > 100 | – | – | > 100 | > 100 | > 100 | > 100 | > 100 | > 100 | > 100 | > 100 | > 100 | > 100 | > 100 | > 100 | > 100 | > 100 | > 100 |
| N#CC12CNCC1CN=N2 (centres undefined) | – | – | > 100 | – | > 100 | > 100 | > 100 | > 100 | > 100 | > 100 | – | > 100 | > 100 | > 100 | > 100 | > 100 | > 100 | > 100 | > 100 | > 100 |
| CC(=O)Oc1cc(Cl)c(C)c2c1[C@H]1CC[C@]3(C)[C@@H](OC(C)=O)CC[C@H]3[C@@H]1CC2 | > 100 | – | > 100 | > 100 | > 100 | > 100 | > 100 | > 100 | > 100 | > 100 | > 100 | > 100 | – | > 100 | > 100 | > 100 | > 100 | > 100 | > 100 | – |
| O=C1CCC2(c3ccccc3)Nc3ccncc3N12 (centres undefined) | – | > 10 | > 10 | > 10 | > 10 | > 10 | > 10 | > 10 | > 10 | – | > 10 | > 10 | – | > 10 | > 10 | > 10 | > 10 | > 10 | > 10 | > 10 |
| NC(=S)N1N=C2c3ccccc3CC[C@@H]2[C@@H]1c1ccccc1 | 32.9 | 33.9 | 20.1 | – | > 94.6 | 19 | > 88.9 | 45.6 | 10.5 | – | 31.1 | 72.3 | 42.2 | – | 21.6 | 50.5 | 62.3 | 12.7 | 31 | – |
| Cc1ccc(/C(Cl)=C/C=C(C#N)C#N)cc1 | – | 26.1 | 3.82 | 5.58 | > 100 | 3.36 | 5.29 | 17.2 | 36.9 | 5.12 | 6.37 | 8.67 | 14.4 | 4.48 | 18.4 | 3.77 | > 100 | 3.91 | 21 | > 100 |
| O/N=C/c1ncccc1C1OCCO1 | – | > 100 | > 100 | – | > 100 | > 100 | > 100 | > 100 | > 100 | > 100 | > 100 | > 100 | > 100 | – | > 100 | > 100 | > 100 | > 100 | > 100 | – |
| O=C(NC12CC3CC(CC(F)(C3)C1)C2)c1ccccc1 | > 100 | > 100 | > 100 | – | > 100 | > 100 | > 100 | – | > 100 | > 100 | > 100 | > 100 | – | – | > 100 | > 100 | > 100 | > 100 | > 100 | – |
